From patent US4760136A, “Chartreusin derivatives and salts thereof” (Ishihara Sangyo Kaisha, Ltd., priority 1984, dated 1988)
Structures can show the parent of a compound that is named as a salt.

Tests used:
P-388 leukemia cells = assay: Antitumor activity: P-388 leukemia cells inoculated intraperitoneally, drug administered intravenously, BDF1 mice; type: in vivo; details: Mus musculus, P388, iv, BDF1 mice, P-388 i.p., read-out: T/C (%) of MST; for response vs control in vivo at 20 mg/kg: dose b: 20 mg/kg × 3, i.v. on days 1, 5 and 9; for response vs control in vivo at 40 mg/kg: dose c: 40 mg/kg × 3, i.v. on days 1, 5 and 9; for response vs control in vivo at 80 mg/kg: dose f: 80 mg/kg × 3, i.v. on days 1, 5 and 9; for response vs control in vivo at 60 mg/kg: dose e: 60 mg/kg × 3, i.v. on days 1, 5 and 9
Outline: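 Drug dosing was intravenous on the first, fifth and ninth days after intraperitoneal inoculation of P-388 leukemia cells (1×10^6 per mouse) into BDF1 mice. Vehicles were physiological saline alone, or saline with small amounts of sodium carboxymethyl cellulose or Tween-80.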

[1] = Acute toxicity, intravenous (once), ddY mice; type: in vivo; details: mouse, in vivo, iv, formulated per Preparation Example
Text: In Table 7 are shown acute toxicity values (LD50, mg/kg) in ddY mice in the case of intravenously administering (once) each of the compounds of this invention in the form of preparations shown in the Preparation Examples shown in Table 7.

Row | SMILES | response vs control in vivo at 20 mg/kg (P-388 leukemia cells) | LD50 [1] | response vs control in vivo at 40 mg/kg (P-388 leukemia cells) | response vs control in vivo at 80 mg/kg (P-388 leukemia cells) | response vs control in vivo at 60 mg/kg (P-388 leukemia cells)
1 | CCN(CC)CCC(=O)Oc1c2cccc(OC3OC(C)C4OC(c5cccc(F)c5)OC4C3OC3OC(C)C(O)C(OC)C3O)c2c2oc(=O)c3c(C)ccc4oc(=O)c1c2c43 (stereo not drawn) [Compound No. 15, 6-O-(N,N-diethyl-β-alanyl)-3',4'-O-(m-fluorobenzylidene)-chartreusin hydrochloride] | 189% | ≥ 30 mg/kg |  |  | 
2 | COc1cccc(C(=O)Oc2c3cccc(O[C@@H]4O[C@H](C)[C@@H]5OC(C)(C)O[C@@H]5[C@H]4O[C@H]4O[C@H](C)[C@H](O)[C@H](OC)[C@H]4O)c3c3oc(=O)c4c(C)ccc5oc(=O)c2c3c54)c1 [Compound No. 184] |  | ≥ 80 mg/kg | 162% | 199% | 
3 | COC1C(O)C(C)OC(OC2C(Oc3cccc4c(OC(=O)CCNC(=O)c5ccccc5)c5c(=O)oc6ccc(C)c7c(=O)oc(c34)c5c67)OC(C)C3OC(C)(C)OC32)C1O (stereo not shown) [Compound No. 50] |  | ≥ 100 mg/kg |  |  | 155%
4 | COC1C(O)C(C)OC(OC2C(Oc3cccc4c(OC(=O)CCNC=O)c5c(=O)oc6ccc(C)c7c(=O)oc(c34)c5c67)OC(C)C3OC(c4cccc(F)c4)OC32)C1O (stereo not shown) [Compound No. 46] |  | ≥ 80 mg/kg | 157% | 210% | 
5 | COC1C(O)C(C)OC(OC2C(Oc3cccc4c(OC(=O)CCNC=O)c5c(=O)oc6ccc(C)c7c(=O)oc(c34)c5c67)OC(C)C3OC(c4ccccc4Cl)OC32)C1O (stereo not shown) [Compound No. 58] |  | ≥ 80 mg/kg | 162% | 216% | 
6 | COC1C(O)C(C)OC(OC2C(Oc3cccc4c(OC(=O)CC(C)C)c5c(=O)oc6ccc(C)c7c(=O)oc(c34)c5c67)OC(C)C3OC(C)(C)OC32)C1O (stereo not shown) [Compound No. 171] |  | ≥ 80 mg/kg | 186% | 212% | 
7 | COC1C(O)C(C)OC(OC2C(Oc3cccc4c(OC(=O)C(Cc5ccccc5)NC(=O)OCc5ccccc5)c5c(=O)oc6ccc(C)c7c(=O)oc(c34)c5c67)OC(C)C3OC(c4ccccc4)OC32)C1O (stereo not shown) [compound 122] |  | ≥ 40 mg/kg | 135% |  | 
8 | COC1C(O)C(C)OC(OC2C(Oc3cccc4c(OC(=O)CCC(C)=O)c5c(=O)oc6ccc(C)c7c(=O)oc(c34)c5c67)OC(C)C3OC(c4cccc(C(F)(F)F)c4)OC32)C1O (stereo not shown) [Compound No. 162] |  | ≥ 80 mg/kg | 157% | 243% | 
9 | COC1C(O)C(C)OC(OC2C(Oc3cccc4c(OC(=O)CC(C)CC(C)(C)C)c5c(=O)oc6ccc(C)c7c(=O)oc(c34)c5c67)OC(C)C3OC(C)(C)OC32)C1O (stereo not shown) [compound 237] |  | ≥ 60 mg/kg |  |  | 242%
10 | COC1C(O)C(C)OC(OC2C(Oc3cccc4c(OC(=O)CCNC(=O)C(F)(F)F)c5c(=O)oc6ccc(C)c7c(=O)oc(c34)c5c67)OC(C)C3OC(c4cccc(Br)c4)OC32)C1O (stereo not shown) [Compound No. 31] |  | ≥ 80 mg/kg | 171% | 238% | 
11 | COC1C(O)C(C)OC(OC2C(Oc3cccc4c(OC(=O)C(C)CNC(=O)CNC(=O)OCc5ccccc5)c5c(=O)oc6ccc(C)c7c(=O)oc(c34)c5c67)OC(C)C3OC(c4ccccc4)OC32)C1O (stereo not shown) [compound 74] | 186% | ≥ 40 mg/kg |  |  | 
12 | CO[C@H]1[C@@H](O)[C@@H](C)O[C@H](O[C@H]2[C@H](Oc3cccc4c(OC(=O)c5ccc(Cl)cc5)c5c(=O)oc6ccc(C)c7c(=O)oc(c34)c5c67)O[C@H](C)[C@@H]3OC(c4ccccc4)O[C@@H]32)[C@@H]1O (stereo partly shown) [compound 194] | 130% | ≥ 40 mg/kg | 192% |  | 
13 | C=CC(=O)Oc1c2cccc(O[C@@H]3O[C@H](C)[C@@H]4OC(C)(C)O[C@@H]4[C@H]3O[C@H]3O[C@H](C)[C@H](O)[C@H](OC)[C@H]3O)c2c2oc(=O)c3c(C)ccc4oc(=O)c1c2c43 [compound 197] |  | ≥ 80 mg/kg | 144% | 171% | 
